Measured values: ChEMBL document CHEMBL1240391, “High prevalence of ST131 isolates producing CTX-M-15 and CTX-M-14 among extended-spectrum-beta-lactamase-producing Escherichia coli isolates from Canada” (2010)

Assays:
Assay type in all cases: functional
Escherichia coli [1] = assay: Antimicrobial activity against Escherichia coli assessed as nonsusceptible isolates by CLSI method
Escherichia coli [2] = assay: Antimicrobial activity against ESBL producing Escherichia coli assessed as nonsusceptible isolates by CLSI method
Escherichia coli [3] = assay: Antimicrobial activity against CTX-M15/CTX-M14 ESBL producing Escherichia coli ST131 clonal complex isolate assessed as nonsusceptible isolates by CLSI method

| Compound | Activity (Escherichia coli [1]) | Activity (Escherichia coli [2]) | Activity (Escherichia coli [3]) |
| --- | --- | --- | --- |
| NCC[C@H](O)C(=O)N[C@@H]1C[C@H](N)[C@@H](O[C@H]2O[C@H](CN)[C@@H](O)[C@H](O)[C@H]2O)[C@H](O)[C@H]1O[C@H]1O[C@H](CO)[C@@H](O)[C@H](N)[C@H]1O [AMIKACIN] | 39% | 35% | 45% |
| O=C1CN(/N=C/c2ccc([N+](=O)[O-])o2)C(=O)N1 [NITROFURANTOIN] | 8% | 12% | 4% |
| NC[C@H]1O[C@H](O[C@H]2[C@H](O)[C@@H](O[C@H]3O[C@H](CO)[C@@H](O)[C@H](N)[C@H]3O)[C@H](N)C[C@@H]2N)[C@H](N)C[C@@H]1O [TOBRAMYCIN] | 69% | 49% | 93% |
| GENTAMICIN | 50% | 35% | 67% |
